Measurements published in ChEMBL document CHEMBL1201862, “PubChem BioAssay data set” (2004).
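How tested: cells in 96-well plates exposed to compound for 48 hours at five concentrations. GI50 is the concentration that inhibits growth by half.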 Calls of active or inactive are those of the source. No stated cut-off is given here; in the data, active = GI50 up to about 1.1 µM and inactive = higher.

How the values were obtained:
Assay in all cases: NCI tumour cell line growth inhibition, 48 h
SF-268 = tested on: SF-268
SW-620 = tested on: SW-620
UACC-257 = tested on: UACC-257
UACC-62 = tested on: UACC-62
SNB-75 = tested on: SNB-75
HT-29 = tested on: HT-29
SK-MEL-2 = tested on: SK-MEL-2
KM12 = tested on: KM12
NCI/ADR-RES = tested on: NCI/ADR-RES
MOLT-4 = tested on: MOLT-4
NCI-H522 = tested on: NCI-H522
HOP-92 = tested on: HOP-92
HCT-15 = tested on: HCT-15
SR = tested on: SR
NCI-H226 = tested on: NCI-H226
K562 = tested on: K562
SF-539 = tested on: SF-539
NCI-H23 = tested on: NCI-H23
IGROV-1 = tested on: IGROV-1
ACHN = tested on: ACHN

For C[N+]1(C)CN(c2ccccc2)C2(CCN(CCCC(=O)c3cccs3)CC2)C1=O, the GI50 (SF-268) was > 100 µM (inactive), the GI50 (SW-620) was > 100 µM (inactive) and the GI50 (UACC-257) was 42.4 µM (inactive). For the same compound, the GI50 (UACC-62) was > 100 µM (inactive), the GI50 (SNB-75) was 27.7 µM (inactive) and the GI50 (HT-29) was 31.8 µM (inactive). For the same compound, the GI50 (SK-MEL-2) was > 100 µM (inactive), the GI50 (KM12) was > 100 µM (inactive) and the GI50 (NCI/ADR-RES) was > 100 µM (inactive). For the same compound, the GI50 (MOLT-4) was 71.6 µM (inactive), the GI50 (NCI-H522) was > 100 µM (inactive) and the GI50 (HOP-92) was 35.7 µM (inactive). For the same compound, the GI50 (HCT-15) was 56.4 µM, the GI50 (SR) was 60 µM (inactive) and the GI50 (NCI-H226) was > 100 µM (inactive). The GI50 (K562) was 76 µM (inactive), the GI50 (SF-539) was > 100 µM (inactive) and the GI50 (NCI-H23) was 82.6 µM (inactive). For the same compound, the GI50 (IGROV-1) was 68.1 µM (inactive) and the GI50 (ACHN) was > 100 µM (inactive).
